In article PMC6337391 (Molecules, 2019):

Key:
[1] = Reducing activity with the stable radical DPPH
Protocol: The chalcones were studied for the antioxidant activity (reducing activity RA%) by the use of the stable free radical 2,2-diphenyl-1-picrylhydrazyl radical (DPPH) at concentrations 0.05 mM after 20 and 60 min (Table 2). In this procedure, the dominant chemical reaction involved is the reduction of the DPPH radical by single electron transfer from the antioxidant. […] For the sake of comparison, we measured the RA% values for the intermediate double ethers d which were included in the Table 2.
To a solution of DPPH (final concentration 0.05 mM) in absolute ethanol an equal volume of the compounds solution in DMSO (stock solution 10 mM) dissolved in ethanol was added. Absolute ethanol was used as a control. The concentrations of the solutions of the compounds were 0.05 and 0.1 mM. The absorbance was recorded at 517 nm at room temperature after 20 and 60 min [29] (Table 2).

[2] = ABTS•+ decolorization assay
Protocol: The decolorization assay is used to evaluate the antioxidant activity. The ABTS^•+ cationic radical is derived from the direct oxidation of ABTS by potassium persulfate. No involvement of an intermediary radical is observed. The addition of electron-donating antioxidants reduce ABTS^•+.
Stock solutions of the tested compounds in DMSO (10 mM) were diluted. […] aliquots of each sample were added into the ABTS·^+ solution and the absorbance was recorded at room temperature. Trolox was used as a standard.

soybean lipoxygenase = biological target: T1, soybean lipoxygenase (Glycine max, UniProt P08170); experiment: biochemical; format: biochemical; details: soybean LOX
T1 sequence (P08170 1-839): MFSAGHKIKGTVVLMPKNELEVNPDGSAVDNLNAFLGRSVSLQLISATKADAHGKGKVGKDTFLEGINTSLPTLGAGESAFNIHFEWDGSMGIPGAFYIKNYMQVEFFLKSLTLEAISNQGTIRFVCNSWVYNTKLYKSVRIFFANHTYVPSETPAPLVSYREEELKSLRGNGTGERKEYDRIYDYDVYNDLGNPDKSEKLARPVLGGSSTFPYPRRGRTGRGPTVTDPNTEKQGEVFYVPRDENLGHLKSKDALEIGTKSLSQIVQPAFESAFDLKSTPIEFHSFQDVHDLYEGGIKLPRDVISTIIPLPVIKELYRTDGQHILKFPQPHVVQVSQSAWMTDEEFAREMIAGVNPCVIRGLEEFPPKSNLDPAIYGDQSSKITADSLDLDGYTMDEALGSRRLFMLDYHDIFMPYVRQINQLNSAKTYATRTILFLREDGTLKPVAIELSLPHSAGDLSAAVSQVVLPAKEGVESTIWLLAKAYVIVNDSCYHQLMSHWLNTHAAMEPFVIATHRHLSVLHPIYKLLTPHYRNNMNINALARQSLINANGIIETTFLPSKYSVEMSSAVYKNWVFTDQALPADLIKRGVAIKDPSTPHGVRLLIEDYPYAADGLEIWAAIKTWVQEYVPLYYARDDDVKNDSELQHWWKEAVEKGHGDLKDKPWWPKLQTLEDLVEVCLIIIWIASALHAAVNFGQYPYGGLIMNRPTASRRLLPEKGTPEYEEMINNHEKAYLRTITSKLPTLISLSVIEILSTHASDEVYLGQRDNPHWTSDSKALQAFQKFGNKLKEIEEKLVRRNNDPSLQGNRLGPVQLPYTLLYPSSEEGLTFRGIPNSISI
Source text: In our experiments we used soybean lipoxygenase. Designing agents to modulate activities of the variety of so closely homologous enzymes, such as different LOXs, require an intimate knowledge of their 3D structures, as well as information about metabolism of the potential xenobiotics. […] Due to lack of sufficiently-purified human enzymes most of the research has been done on soybean LOX [52, 53]. Although this enzyme is not identical to the mammalian one, it seems that there is a sufficient qualitative correlation between values for enzyme inhibition with the two enzymes.
In vitro study was evaluated as reported previously. The tested compounds as stock solutions were dissolved in DMSO. Ten microliters (10 μL) were incubated at room temperature with sodium linoleate ([…]) and 0.2 mL of enzyme solution (1/9 × 10^−4 w/v in saline) in buffer pH 9 (tris) at room temperature (final volume 1 mL). […] Several concentrations were used for the determination of IC50 values.

[3] = Inhibition of linoleic acid lipid peroxidation (AAPH)
Source text: The water soluble 2,2′-azobis(2-amidinopropane) hydrochloride (AAPH) generates in vitro free radicals through spontaneous thermal decomposition. […] Overall, chalcones a, b, and c present anti-lipid peroxidation activity. […] The inhibiting activities for the rest b chalcones ranged from 15–44%. The intermediate ethers are moderate inhibitors. […] This might be correlated with the presence of the double C=C–COCH3 group. […] Both have a long ether chain in their structure.
In an aqueous solution spectrophotometrically at 234 nm the production of conjugated diene hydro peroxide by oxidation of sodium linoleate was monitored and recorded according to our previous published experimental conditions, using 10 µL of the 16 mM sodium linoleate solution added to the UV cuvette containing 930 μL of 0.05 M phosphate buffer, pH 7.4 pre-thermostated at 37 °C, under air by the addition of 50 μL of 40 mM AAPH solution, which was used as a free radical initiator. Ten microliters (10 μL) of the appropriate solutions of the tested compounds were added in the mixture, whereas same level of DMSO was used as a blank for the measurement of lipid oxidation. The rate of oxidation at 37 °C was monitored by recording the increase in absorption at 234 nm caused by conjugated diene hydro peroxides.

[4] = Lipophilicity as RM values by RP-TLC; format: physicochemical; design: key: RM = log[(1/Rf) − 1]; details: methanol/water 70/30, SD < 10%
Source text: It is well-documented and discussed in the literature that lipophilicity is a very significant physicochemical property which may critically affect distribution, bioavailability, metabolic activity and elimination, all the useful characteristics for the kinetics of biologically active compounds. Thus, we attempted to determine experimentally the lipophilicity of the synthesized compounds from the RPTLC method as RM values. The method is considered to be a reliable, fast and convenient method for expressing lipophilicity. Moreover, many calculated methods were used in order to predict the logP value.
Reversed phase TLC (RP-TLC) was performed on silica gel plates impregnated with 5% (v/v) liquid paraffin in light petroleum ether. The mobile phase was a methanol/water mixture (70/30, v/v). The plates were developed in closed chromatography tanks saturated with the mobile phase at 24 °C. Spots were detected under UV light. Five individual measurements of Rf values were recorded and used for the determination of RM using the equation RM = log [(1/Rf) − 1]. (Table 3).

[5] = test system: L929 mouse fibroblasts cells; experiment: Cytotoxicity, propidium iodide fluorescence method; format: cell-based; details: 24-h incubation
Protocol: The cytotoxicity of the synthesized derivatives against L929 mouse fibroblasts cells was determined using the propidium iodide (PI) fluorescence method in the presence of different concentrations (1–100 μM) of these compounds. The results are presented in Table 4 in the form of the % cell survival values as PI% for the examined compounds. […] Chalcones c7, c8, c11, and c12 follow.
L929 mouse fibroblasts cells were cultured in EMEM supplemented with 10% horse serum, 2 mM L-glutamine, 1 mM sodium pyruvate, 0.1 mM nonessential amino acids, 1.5 g/L sodium bicarbonate, and 100 μg/mL penicillin–streptomycin at 37 °C in a humidified atmosphere with 5% CO2. L929 cells were plated into 24-well plates at a density […] and allowed to attach and grow for 24 h. The supernatant in each well then replaced with medium containing various concentrations (1, 10, 20, 50 and 100 μM) of compounds a5–12, c5–12, di, and dii–dvi, which presented the more interesting results in the in vitro experiments. After 24-h incubation, the supernatant was removed and the cells were washed with PBS. The cells were detached with 0.25% trypsin, transferred to FACS tubes, and then centrifuged (1600 rpm for 5 min) and the pellet washed with PBS. After washing, the cells in the pellet were incubated with 5 μL propidium iodide (PI) solution (1 mg/mL) for 1 min. The PI fluorescence (cell death) was determined with flow cytometry, FACS Calibur, Coulter Epics XL-MCL (Beckman, Inc., Mount Holly, NJ, USA). The analysis of flow cytometry data was performed with the WinMDI analysis program (Table 4).

SMILES	RA% 100 μM 20 min [1]	RA% 100 μM 60 min [1]	ABTS•+ Inhb. % @ 100 μM [2]	% LOX Inhb. @ 100 μM (soybean lipoxygenase) [%]	AAPH% @ 100 μM (anti-lipid peroxidation) [3] [%]	RM [4]	IC50 (soybean lipoxygenase; read-out: LOX IC50) [µM]	1 μM Average (% pi) ± σ [5] [%]	10 μM Average (% pi) ± σ [5] [%]	20 μM Average (% pi) ± σ [5] [%]	50 μM Average (% pi) ± σ [5] [%]	100 μM Average (% pi) ± σ [5] [%]
CC(Cc1ccc(O)c(O)c1)C(C)Cc1ccc(O)c(O)c1 (stereo not drawn) [NDGA, Nordihydroguaiaretic acid, reference compound]	81%	83%										
Nc1c2c(nc3ccccc13)CCCC2 [Tacrine, reference compound]			88%									
O=C(/C=C/c1ccccc1)c1ccc(O)cc1 [a13, (E)-1-(4-hydroxyphenyl)-3-phenylprop-2-en-1-one]	7%	3%	No	23	38	−0.73						
O=C(/C=C/c1ccc(OCc2ccc(Br)cc2)cc1)c1ccccc1O [b1, (E)-3-(4-((4-bromobenzyl)oxy)phenyl)-1-(2-hydroxyphenyl) prop-2-en-1-one]	46%	0%	40%	89	89	−0.91	56					
O=C(/C=C/c1cccc(Oc2ccccc2)c1)c1ccccc1O [b2, (E)-1-(2-hydroxyphenyl)-3-(3-phenoxyphenyl) prop-2-en-1-one]	45%	15%	No	44	44	0.04						
CC(=O)c1ccc(OCCCCOc2ccc(C(C)=O)cc2)cc1 [diii, 1,1′-((butane-1,4-diylbis(oxy))bis(4,1-phenylene))diethanone]			No	41	29	−0.37		14.06 ± 1.36	20 ± 3.12	20.76 ± 3.51	32.14 ± 6.99	32.14 ± 6.99
CC(=O)c1ccc(OCCCCCOc2ccc(C(C)=O)cc2)cc1 [div, 1,1′-((pentane-1,5-diylbis(oxy))bis(4,1-phenylene))diethanone]			No	17	30	0.23		4.89 ± 0.51	8.56 ± 3.97	11.86 ± 2.98	17.05 ± 1.46	17.05 ±1.46
CC(=O)c1ccc(OCCCCCCOc2ccc(C(C)=O)cc2)cc1 [dv, 1,1′-((hexane-1,6-diylbis(oxy))bis(4,1-phenylene))diethanone]			No	7	18	−0.53		4.47 ± 0.59	6.83 ± 2.46	8.05 ± 3.58	9.69 ± 0.57	9.69 ± 0.57
CC(=O)c1ccc(OCCCCCCCCOc2ccc(C(C)=O)cc2)cc1 [dvii, 1,1′-((octane-1,8-diylbis(oxy))bis-(4,1-phenylene))diethanone]			No	5	27	−0.36						
CN(C)c1ccc(/C=C/C=C/C(=O)c2ccc(OCCCCCCOc3ccc(C(=O)/C=C/C=C/c4ccc(N(C)C)cc4)cc3)cc2)cc1 [ev, (2E,2′E,4E,4′E)-1,1′-((hexane-1,6-diylbis(oxy))bis(4,1-phenylene))bis(5-(4-(dimethylamino)phenyl)penta-2,4-dien-1-one)]	No	no	25%	7	14							
CN(C)c1ccc(/C=C/C=C/C(=O)c2ccc(OCCCCCCCCOc3ccc(C(=O)/C=C/C=C/c4ccc(N(C)C)cc4)cc3)cc2)cc1 [evii, (2E,2′E,4E,4′E)-1,1′-((octane-1,8-diylbis(oxy))bis(4,1-phenylene))bis(5-(4-(dimethylamino)phenyl)penta-2,4-dien-1-one)]	No	no	88%	12	6							
